Laboratory results from patent publication US5466671A, “Apidaecin-type peptide antibiotics with improved activities and/or different antibacterial spectrum” (priority 1994, dated 1995).
Residues, ends and D or L forms follow the SMILES beside them.

Columns and labels:
[1] = tested on: E. coli D22; type: cell-based; conditions: 50 nanomoles per well (3 mm diameter)
[2] = tested on: Acinetobacter calcoaceticus; assay: Inhibition zone assay (agar plate); type: cell-based; conditions: 50 nanomoles per well (3 mm diameter)
[3] = tested on: Salmonella typhimurium; assay: Inhibition zone assay (agar plate); type: cell-based; conditions: for Inhibition zones: in mm diameter: 50 nanomoles per well (3 mm diameter)
[4] = tested on: Escherichia coli (ATCC11775); assay: Inhibition zone assay (agar plate); type: cell-based; conditions: for Inhibition zones: in mm diameter: 50 nanomoles per well (3 mm diameter)
[5] = tested on: Enterobacter cloacae; assay: Inhibition zone assay (agar plate); type: cell-based; conditions: for Inhibition zones: in mm diameter: 50 nanomoles per well (3 mm diameter)
[6] = tested on: Shigella dysenteriae; type: cell-based; conditions: for Inhibition zones: in mm diameter: 50 nanomoles per well (3 mm diameter)
[7] = tested on: Salmonella typhi; type: cell-based; conditions: for Inhibition zones: in mm diameter: 50 nanomoles per well (3 mm diameter)
[8] = tested on: Klebsiella pneumoniae; assay: Inhibition zone assay (agar plate); type: cell-based; conditions: for Inhibition zones: in mm diameter: 50 nanomoles per well (3 mm diameter)
[9] = tested on: Agrobacterium tumefaciens; assay: Inhibition zone assay (agar plate); type: cell-based; conditions: 50 nanomoles per well (3 mm diameter)
[10] = tested on: Erwinia amylovora; assay: Inhibition zone assay (agar plate); type: cell-based; conditions: for Inhibition zones: in mm diameter: 50 nanomoles per well (3 mm diameter)
[11] = tested on: E. coli 23802; assay: Minimal inhibitory concentration (liquid culture); conditions: inoculum 5000 CFU/ml; a-b = highest concentration with growth - lowest without growth
[12] = tested on: Yersinia enterocolitica; assay: Inhibition zone assay (agar plate); type: cell-based; conditions: 50 nanomoles/well, 3 mm wells
[13] = tested on: S. typhimurium; assay: Minimal inhibitory concentration (liquid culture); conditions: inoculum 8 × 10^6 CFU/ml; a-b = highest concentration with growth - lowest without growth
[14] = tested on: A. calcoaceticus; assay: Minimal inhibitory concentration (liquid culture); conditions: inoculum 16 × 10^6 CFU/ml; a-b = highest concentration with growth - lowest without growth
[15] = tested on: E. coli 25922; assay: Minimal inhibitory concentration (liquid culture); conditions: inoculum 1100 CFU/ml; a-b = highest concentration with growth - lowest without growth
[16] = tested on: E. coli 11775; assay: Minimal inhibitory concentration (liquid culture); conditions: a-b = highest concentration with growth - lowest without growth
[17] = tested on: Y. enterocolitica; assay: Minimal inhibitory concentration (liquid culture); conditions: inoculum 5000 CFU/ml; a-b = highest concentration with growth - lowest without growth
[18] = tested on: M. morganii; assay: Minimal inhibitory concentration (liquid culture); conditions: inoculum 400 CFU/ml; a-b = highest concentration with growth - lowest without growth
[19] = tested on: Rhizobium meliloti; assay: Inhibition zone assay (agar plate); type: cell-based; conditions: 50 nanomoles/well, 3 mm wells
[20] = tested on: Pseudomonas syringae; assay: Inhibition zone assay (agar plate); type: cell-based; conditions: for Inhibition zones: in mm diameter: 50 nanomoles per well (3 mm diameter)
[21] = tested on: E. coli Apid^R; assay: Minimal inhibitory concentration (liquid culture); type: cell-based; conditions: a-b = highest concentration with growth - lowest without growth
From the text: For details see `Experimental Procedures`.

[22] = tested on: Morganella morganii; assay: Inhibition zone assay (agar plate); type: cell-based; conditions: 50 nanomoles/well, 3 mm wells
[23] = agar plate, 50 nanomoles/well, 3 mm wells

## QVPIRPSQPRPQPFKPRPQQVPPRTPHPR (QVPIRPSQPRPQPFKPRPQQVPPRTPHPR) [PAB-FT 6-35]
[1]
  Inhibition zones: in mm diameter: 14 mm
[2]
  Inhibition zones: in mm diameter: 10 mm
[3]
  Inhibition zones: in mm diameter: 8 mm
[4]
  Inhibition zones: in mm diameter: 13 mm
[5]
  Inhibition zones: in mm diameter: 12 mm
[6]
  Inhibition zones: in mm diameter: 12 mm
[7]
  Inhibition zones: in mm diameter: 14 mm
[8]
  Inhibition zones: in mm diameter: 11 mm

## CC[C@H](C)[C@H](NC(=O)[C@@H]1CCCN1C(=O)[C@@H](NC(=O)[C@H](CCC(N)=O)NC(=O)[C@@H]1CCCN1C(=O)[C@H](CO)NC(=O)[C@@H]1CCCN1C(=O)[C@H](CCCNC(=N)N)NC(=O)[C@@H](N)CO)C(C)C)C(=O)N[C@@H](CCCNC(=N)N)C(=O)N1CCC[C@H]1C(=O)N[C@@H](CO)C(=O)N[C@@H](CCC(N)=O)C(=O)N1CCC[C@H]1C(=O)N[C@@H](CCCNC(=N)N)C(=O)N1CCC[C@H]1C(=O)N[C@@H](CCC(N)=O)C(=O)N1CCC[C@H]1C(=O)N[C@@H](Cc1ccccc1)C(=O)N[C@@H](CCCCN)C(=O)N1CCC[C@H]1C(=O)N[C@@H](CCCNC(=N)N)C(=O)N1CCC[C@H]1C(=O)N[C@@H](CCC(N)=O)C(=O)N[C@@H](CCC(N)=O)C(=O)N[C@H](C(=O)N1CCC[C@H]1C(=O)N1CCC[C@H]1C(=O)N[C@@H](CCCNC(=N)N)C(=O)N1CCC[C@H]1C(=O)N1CCC[C@H]1C(=O)N[C@@H](Cc1c[nH]cn1)C(=O)N1CCC[C@H]1C(=O)N[C@@H](CCCNC(=N)N)C(=O)N[C@@H](CC(C)C)C(=O)O)C(C)C [PAB-FP, SRPSPQVPIRPSQPRPQPFKPRPQQVPPRPPHPRL] (H-SRPSPQVPIRPSQPRPQPFKPRPQQVPPRPPHPRL-OH)
[1]
  Inhibition zones: in mm diameter: 14 mm
[2]
  Inhibition zones: in mm diameter: 8 mm
[3]
  Inhibition zones: in mm diameter: 7 mm
[4]
  Inhibition zones: in mm diameter: 10 mm
[9]
  Inhibition zones: in mm diameter: 7 mm
[5]
  Inhibition zones: in mm diameter: 11 mm
[6]
  Inhibition zones: in mm diameter: 12 mm
[7]
  Inhibition zones: in mm diameter: 13 mm
[8]
  Inhibition zones: in mm diameter: 8 mm
[10]
  Inhibition zones: in mm diameter: 5 mm

## CC(C)C[C@H](NC(=O)[C@H](CCCNC(=N)N)NC(=O)[C@@H]1CCCN1C(=O)[C@H](Cc1c[nH]cn1)NC(=O)[C@@H]1CCCN1C(=O)[C@@H]1CCCN1C(=O)[C@H](CCCNC(=N)N)NC(=O)[C@@H]1CCCN1C(=O)[C@@H]1CCCN1C(=O)[C@@H](NC(=O)[C@H](CCC(N)=O)NC(=O)[C@H](CCC(N)=O)NC(=O)[C@@H]1CCCN1C(=O)[C@@H](N)CCCNC(=N)N)C(C)C)C(=O)O [Ho -, Arg--Pro--Gln--Gln--Val--Pro--Pro--Arg--Pro--Pro--His--Pro--Arg--Leu] (H-RPQQVPPRPPHPRL-OH)
[11]
  minimal inhibitory concentration (MIC): > 40 mg/L
[3]; [23]
  inhibition zone diameter (number of plus signs): + ((+) 5-6 mm)
[12]
  inhibition zone diameter (number of plus signs): ++ ((++) 7-9 mm)
[13]
  minimal inhibitory concentration (MIC): 5 to 10 mg/L
[14]
  minimal inhibitory concentration (MIC): > 20 mg/L
[4]; [23]
  inhibition zone diameter (number of plus signs): +++ ((+++) 10-14 mm)
[15]
  minimal inhibitory concentration (MIC): 10 to 20 mg/L
[16]; inoculum 16 × 10^6 CFU/ml
  minimal inhibitory concentration (MIC): 10 to 20 mg/L
[16]; inoculum 1200 CFU/ml
  minimal inhibitory concentration (MIC): 0.5 to 1 mg/L
[17]
  minimal inhibitory concentration (MIC): 10 to 20 mg/L
[18]
  minimal inhibitory concentration (MIC): 10 to 20 mg/L
[19]
  inhibition zone diameter (number of plus signs): ++++ ((++++) 15-19 mm)
[20]; [23]
  inhibition zone diameter (number of plus signs): +++ ((+++) 10-14 mm)
[21]; inoculum 12 × 10^6 CFU/ml
  minimal inhibitory concentration (MIC): > 40 mg/L
[21]; inoculum 1000 CFU/ml
  minimal inhibitory concentration (MIC): > 40 mg/L
[5]; [23]
  inhibition zone diameter (number of plus signs): + ((+) 5-6 mm)
[6]; [23]
  inhibition zone diameter (number of plus signs): + ((+) 5-6 mm)
[7]; [23]
  inhibition zone diameter (number of plus signs): + ((+) 5-6 mm)
[22]
  inhibition zone diameter (number of plus signs): ++ ((++) 7-9 mm)
[8]; [23]
  inhibition zone diameter (number of plus signs): + ((+) 5-6 mm)
[10]; [23]
  inhibition zone diameter (number of plus signs): ++ ((++) 7-9 mm)

## CC[C@H](C)[C@H](NC(=O)[C@@H]1CCCN1C(=O)[C@@H](NC(=O)[C@H](CCC(N)=O)NC(=O)[C@@H]1CCCN1C(=O)[C@H](CO)NC(=O)[C@@H]1CCCN1C(=O)[C@H](CCCNC(=N)N)NC(=O)[C@@H](N)CO)C(C)C)C(=O)N[C@@H](CCCNC(=N)N)C(=O)N1CCC[C@H]1C(=O)N[C@@H](CO)C(=O)N[C@@H](CCC(N)=O)C(=O)N1CCC[C@H]1C(=O)N[C@@H](CCCNC(=N)N)C(=O)N1CCC[C@H]1C(=O)N[C@@H](CCC(N)=O)C(=O)N1CCC[C@H]1C(=O)NCC(=O)N[C@@H](CCCCN)C(=O)N1CCC[C@H]1C(=O)N[C@@H](CCCNC(=N)N)C(=O)N1CCC[C@H]1C(=O)N[C@@H](CCC(N)=O)C(=O)N[C@@H](CCC(N)=O)C(=O)N[C@H](C(=O)N1CCC[C@H]1C(=O)N1CCC[C@H]1C(=O)N[C@@H](CCCNC(=N)N)C(=O)N1CCC[C@H]1C(=O)N1CCC[C@H]1C(=O)N[C@@H](Cc1c[nH]cn1)C(=O)N1CCC[C@H]1C(=O)N[C@@H](CCCNC(=N)N)C(=O)N[C@@H](CC(C)C)C(=O)O)C(C)C [PAB-GP, SRPSPQVPIRPSQPRPQPGKPRPQQVPPRPPHPRL] (H-SRPSPQVPIRPSQPRPQPGKPRPQQVPPRPPHPRL-OH)
[1]
  Inhibition zones: in mm diameter: 14 mm
[2]
  Inhibition zones: in mm diameter: 9 mm
[3]
  Inhibition zones: in mm diameter: 6 mm
[4]
  Inhibition zones: in mm diameter: 10 mm
[20]
  Inhibition zones: in mm diameter: 6 mm
[9]
  Inhibition zones: in mm diameter: 8 mm
[5]
  Inhibition zones: in mm diameter: 13 mm
[6]
  Inhibition zones: in mm diameter: 11 mm
[7]
  Inhibition zones: in mm diameter: 13 mm
[8]
  Inhibition zones: in mm diameter: 9 mm
[10]
  Inhibition zones: in mm diameter: 5 mm

## SQPRPQPFKPRPQQVPPRTPHPR (SQPRPQPFKPRPQQVPPRTPHPR) [PAB-FT 12-35]
[1]
  Inhibition zones: in mm diameter: 10 mm
[4]
  Inhibition zones: in mm diameter: 10 mm
[5]
  Inhibition zones: in mm diameter: 11 mm
[6]
  Inhibition zones: in mm diameter: 11 mm
[7]
  Inhibition zones: in mm diameter: 5 mm
[8]
  Inhibition zones: in mm diameter: 6 mm

## CC[C@H](C)[C@H](NC(=O)[C@@H]1CCCN1C(=O)[C@@H](NC(=O)[C@H](CCC(N)=O)NC(=O)[C@@H]1CCCN1C(=O)[C@H](CO)NC(=O)[C@@H]1CCCN1C(=O)[C@H](CCCNC(=N)N)NC(=O)[C@@H](N)CO)C(C)C)C(=O)N[C@@H](CCCNC(=N)N)C(=O)N1CCC[C@H]1C(=O)N[C@@H](CO)C(=O)N[C@@H](CCC(N)=O)C(=O)N1CCC[C@H]1C(=O)N[C@@H](CCCNC(=N)N)C(=O)N1CCC[C@H]1C(=O)N[C@@H](CCC(N)=O)C(=O)N1CCC[C@H]1C(=O)NCC(=O)N[C@@H](CCCCN)C(=O)N1CCC[C@H]1C(=O)N[C@@H](CCCNC(=N)N)C(=O)N1CCC[C@H]1C(=O)N[C@@H](CCC(N)=O)C(=O)N[C@@H](CCC(N)=O)C(=O)N[C@H](C(=O)N1CCC[C@H]1C(=O)N1CCC[C@H]1C(=O)N[C@@H](CCCNC(=N)N)C(=O)N[C@H](C(=O)N1CCC[C@H]1C(=O)N[C@@H](Cc1c[nH]cn1)C(=O)N1CCC[C@H]1C(=O)N[C@@H](CCCNC(=N)N)C(=O)N[C@@H](CC(C)C)C(=O)O)[C@@H](C)O)C(C)C [PAB-GT, SRPSPQVPIRPSQPRPQPGKPRPQQVPPRTPHPRL] (H-SRPSPQVPIRPSQPRPQPGKPRPQQVPPRTPHPRL-OH)
[1]
  Inhibition zones: in mm diameter: 13 mm
[2]
  Inhibition zones: in mm diameter: 8 mm
[3]
  Inhibition zones: in mm diameter: 6 mm
[4]
  Inhibition zones: in mm diameter: 8 mm
[20]
  Inhibition zones: in mm diameter: 5 mm
[9]
  Inhibition zones: in mm diameter: 5 mm
[5]
  Inhibition zones: in mm diameter: 9 mm
[6]
  Inhibition zones: in mm diameter: 10 mm
[7]
  Inhibition zones: in mm diameter: 12 mm
[8]
  Inhibition zones: in mm diameter: 8 mm
[10]
  Inhibition zones: in mm diameter: 6 mm

## CC(C)C[C@H](NC(=O)[C@H](CCCNC(=N)N)NC(=O)[C@@H]1CCCN1C(=O)[C@H](Cc1c[nH]cn1)NC(=O)[C@@H]1CCCN1C(=O)[C@@H]1CCCN1C(=O)[C@H](CCCNC(=N)N)NC(=O)[C@@H]1CCCN1C(=O)[C@@H]1CCCN1C(=O)[C@@H](NC(=O)[C@H](CCC(N)=O)NC(=O)[C@H](CCC(N)=O)NC(=O)[C@@H]1CCCN1C(=O)[C@H](CCCNC(=N)N)NC(=O)[C@@H]1CCCN1C(=O)[C@H](CCCCN)NC(=O)[C@@H](N)Cc1ccccc1)C(C)C)C(=O)O [HoFP, F K P R P Q Q V P P R P P H P R L] (H-FKPRPQQVPPRPPHPRL-OH)
[1]
  Inhibition zones: in mm diameter: 16 mm
[3]
  Inhibition zones: in mm diameter: 12 mm
[4]
  Inhibition zones: in mm diameter: 13 mm
[20]
  Inhibition zones: in mm diameter: 12 mm
[9]
  Inhibition zones: in mm diameter: 11 mm
[5]
  Inhibition zones: in mm diameter: 14 mm
[6]
  Inhibition zones: in mm diameter: 18 mm
[7]
  Inhibition zones: in mm diameter: 13 mm
[8]
  Inhibition zones: in mm diameter: 14 mm
[10]
  Inhibition zones: in mm diameter: 11 mm
